Measured values as given in ChEMBL document CHEMBL1201862, “PubChem BioAssay data set” (2004).
Several values for one entry are separate records, joined by “and”; a condition that tells them apart may be missing. Equal values may be shown once. Activity calls are given as the source filed them. For most assays here, no stated cut-off is given here; in the data, actives have a measured EC50 and inactives only a lower limit.

Key:
[1] = Luminescence Cell-Based Dose Response HTS to Identify Inhibitors of 5'UTR Stem-Loop Driven Prion Protein mRNA Translation in H4 Neuroglioblastoma Cells. [Related pubchem assays: 1827 (Project Summary), 1813 (Primary HTS)]; format: functional
[2] = inhibitors of firefly luciferase expression or activity, dose response, H4 neuroglioma cells, luminescence (AID 1990); format: functional, cell-based
[3] = inhibitors of SNCA 5'UTR-driven reporter translation, confirmation, H4 neuroglioma cells, luminescence (AID 1988); format: functional, cell-based
[4] = molecular target: Cytochrome P450 3A4 (Homo sapiens, UniProt P08684);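 further: CYP3A4 tested as one member of a cytochrome P450 panel screen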
[5] = molecular target: Cytochrome P450 2D6 (Homo sapiens, UniProt P10635);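 further: CYP2D6 member of a cytochrome P450 panel assay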
[6] = molecular target: T1, Heat shock factor protein 1 (Mus musculus, UniProt P38532); assay: HSF1 potentiators in luciferase reporter cells, confirmation, cell-based, NIH3T3, luminescence, dose retest (AID 435004); format: functional;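 further: stress induced by proteasome inhibitor MG132 added 30 min after compound; luciferase reporter driven by HSF1 response element in NIH3T3 cells; actives raise luminescence as potentiators of the MG132 stress response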
T1 sequence (P38532 whole entry): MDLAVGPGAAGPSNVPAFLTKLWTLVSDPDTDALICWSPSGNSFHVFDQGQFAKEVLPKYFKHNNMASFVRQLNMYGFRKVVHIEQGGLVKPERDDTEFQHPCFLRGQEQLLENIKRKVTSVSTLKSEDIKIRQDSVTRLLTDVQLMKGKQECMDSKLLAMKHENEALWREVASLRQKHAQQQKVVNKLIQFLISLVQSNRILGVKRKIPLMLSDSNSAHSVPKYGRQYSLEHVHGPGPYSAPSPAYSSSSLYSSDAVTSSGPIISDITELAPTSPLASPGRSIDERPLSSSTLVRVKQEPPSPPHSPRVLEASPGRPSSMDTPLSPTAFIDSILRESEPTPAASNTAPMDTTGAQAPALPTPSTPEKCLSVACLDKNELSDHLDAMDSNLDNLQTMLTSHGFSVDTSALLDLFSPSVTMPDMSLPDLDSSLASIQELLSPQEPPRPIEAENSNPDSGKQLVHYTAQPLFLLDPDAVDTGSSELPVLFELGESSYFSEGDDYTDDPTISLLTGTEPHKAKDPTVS

[7] = molecular target: T2, Cytochrome P450 1A2 (Homo sapiens, UniProt P05177);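 further: PubChem cytochrome P450 panel assay, CYP1A2 panel member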
T2 sequence (P05177 whole entry): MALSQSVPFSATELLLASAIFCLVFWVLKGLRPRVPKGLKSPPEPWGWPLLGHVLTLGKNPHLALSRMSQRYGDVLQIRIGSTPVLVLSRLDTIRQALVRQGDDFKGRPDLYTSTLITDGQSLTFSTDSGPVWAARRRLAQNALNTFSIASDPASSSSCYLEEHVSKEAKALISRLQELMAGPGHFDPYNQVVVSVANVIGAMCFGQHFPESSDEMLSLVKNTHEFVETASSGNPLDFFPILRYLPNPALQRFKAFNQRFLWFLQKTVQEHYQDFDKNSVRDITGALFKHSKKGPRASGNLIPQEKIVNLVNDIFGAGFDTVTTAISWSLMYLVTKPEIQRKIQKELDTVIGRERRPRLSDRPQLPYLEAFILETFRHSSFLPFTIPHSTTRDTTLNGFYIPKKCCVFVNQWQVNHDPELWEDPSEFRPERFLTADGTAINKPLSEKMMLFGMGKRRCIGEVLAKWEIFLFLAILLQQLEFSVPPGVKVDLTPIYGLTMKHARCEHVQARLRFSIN

[8] = HEp-2 cell cytotoxicity, dose response, cytotoxicity control for RSV inhibitor project, HTS (AID 2410); format: functional; conditions: human respiratory syncytial virus
[9] = cytotoxicity toward NIH3T3 fibroblasts, dose response, counter-screen, cell-based, ATP luminescence, mouse fibroblasts (AID 2010); format: functional;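 further: cells exposed to compound for about 90 hours before reading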
[10] = inhibitors of intracellular T. cruzi replication, confirmation, NIH3T3 host cells, beta-gal luminescence (AID 2044); format: functional, cell-based;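 further: intracellular parasites grown in NIH/3T3 mouse fibroblasts as host cells; luminescent beta-galactosidase reporter signal from transgenic T. cruzi replicating inside host cells; inhibitors lower the luminescence signal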
[11] = Luminescence Cell-Based Dose Retest to Confirm Inhibitors of Cancer Stem Cells. [Related pubchem assays (depositor defined):AID2717, AID2721]; format: functional; conditions: Homo sapiens
[12] = molecular target: T3, Corticotropin-releasing factor receptor 2/Corticotropin-releasing factor-binding protein (Homo sapiens, UniProt P24387+Q13324); assay: activators of CRF receptor 2 with binding protein – uHTS hits, confirmation (AID 602473); format: functional; conditions: read-out: EC50_Mean
T3 sequence (Q13324 whole entry): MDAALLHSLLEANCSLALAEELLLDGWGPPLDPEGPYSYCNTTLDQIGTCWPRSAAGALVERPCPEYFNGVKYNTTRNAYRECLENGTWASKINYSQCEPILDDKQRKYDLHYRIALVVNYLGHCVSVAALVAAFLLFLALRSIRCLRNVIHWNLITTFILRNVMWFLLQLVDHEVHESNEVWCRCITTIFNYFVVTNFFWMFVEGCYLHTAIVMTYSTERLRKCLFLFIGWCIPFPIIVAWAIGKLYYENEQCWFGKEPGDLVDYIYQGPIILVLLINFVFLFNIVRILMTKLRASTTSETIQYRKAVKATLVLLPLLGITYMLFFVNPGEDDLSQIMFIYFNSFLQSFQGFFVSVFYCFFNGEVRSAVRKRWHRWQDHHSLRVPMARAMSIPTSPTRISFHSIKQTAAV
T3 sequence (P24387 whole entry): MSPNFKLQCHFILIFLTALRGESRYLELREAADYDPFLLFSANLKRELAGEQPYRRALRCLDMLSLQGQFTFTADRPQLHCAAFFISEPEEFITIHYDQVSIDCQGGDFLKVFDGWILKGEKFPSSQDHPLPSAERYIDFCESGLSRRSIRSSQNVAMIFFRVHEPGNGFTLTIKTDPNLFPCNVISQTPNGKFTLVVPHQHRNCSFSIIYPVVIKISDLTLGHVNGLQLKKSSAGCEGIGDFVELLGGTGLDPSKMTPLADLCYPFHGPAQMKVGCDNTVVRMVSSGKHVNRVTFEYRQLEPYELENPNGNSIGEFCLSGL

[13] = test system: Streptococcus sp. 'group A'; assay: growth inhibition of control SK(-) GAS strain, dose response, counter-screen for streptokinase expression inhibitor project, luminescence, kanamycin, BacTiterGlo, confirmation (AID 1900); format: functional, organism-based
[14] = test system: Streptococcus; assay: Group A Streptococcus viability loss, dose response, counter-screen for streptokinase expression inhibitor project, luminescence, BacTiterGlo (AID 1915); format: functional, organism-based;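 further: potency for reduction of bacterial viability or growth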

Cytochrome P450 2D6, sequence (P10635 whole entry): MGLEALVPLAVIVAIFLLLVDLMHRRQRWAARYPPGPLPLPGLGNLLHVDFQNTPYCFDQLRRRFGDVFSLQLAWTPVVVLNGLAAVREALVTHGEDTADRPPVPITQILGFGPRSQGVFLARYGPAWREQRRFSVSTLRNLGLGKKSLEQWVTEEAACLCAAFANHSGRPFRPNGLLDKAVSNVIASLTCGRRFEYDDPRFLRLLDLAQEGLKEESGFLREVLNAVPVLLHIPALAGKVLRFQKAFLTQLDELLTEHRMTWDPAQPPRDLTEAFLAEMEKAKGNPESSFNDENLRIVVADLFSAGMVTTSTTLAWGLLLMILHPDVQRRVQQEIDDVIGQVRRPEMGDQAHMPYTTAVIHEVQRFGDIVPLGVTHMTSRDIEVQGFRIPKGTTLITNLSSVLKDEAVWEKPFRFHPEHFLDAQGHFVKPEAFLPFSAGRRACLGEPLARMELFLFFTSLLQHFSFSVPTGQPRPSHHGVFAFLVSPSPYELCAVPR
Cytochrome P450 3A4, sequence (P08684 whole entry): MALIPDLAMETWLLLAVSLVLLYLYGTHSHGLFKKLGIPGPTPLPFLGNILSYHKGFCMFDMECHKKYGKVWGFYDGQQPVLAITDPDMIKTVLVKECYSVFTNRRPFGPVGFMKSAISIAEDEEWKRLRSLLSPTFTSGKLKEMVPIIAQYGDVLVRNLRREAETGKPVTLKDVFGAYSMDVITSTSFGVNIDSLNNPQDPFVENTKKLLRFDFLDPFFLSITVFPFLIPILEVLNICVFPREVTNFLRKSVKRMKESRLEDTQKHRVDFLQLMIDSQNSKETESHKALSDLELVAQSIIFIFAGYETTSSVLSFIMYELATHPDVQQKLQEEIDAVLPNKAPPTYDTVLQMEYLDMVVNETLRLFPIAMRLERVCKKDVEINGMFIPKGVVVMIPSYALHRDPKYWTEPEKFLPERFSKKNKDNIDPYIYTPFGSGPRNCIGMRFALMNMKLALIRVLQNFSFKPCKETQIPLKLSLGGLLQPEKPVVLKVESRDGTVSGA

COCC(C)OC(=O)C(C#N)c1nc2ccccc2nc1N1CCN(Cc2ccccc2)CC1 (stereo not drawn)
EC50 [1]: > 120 µM (not active)
EC50 [2]: 17.6 µM (active)
EC50 [3]: 23.7 µM (active)

CCC(C)C1NC(=S)N(C2CCCCC2)C1=O (stereo not drawn)
EC50 [1]: > 120 µM (not active)
EC50 [2]: > 120 µM (not active)
AC50 [4]: 17.8 µM (inconclusive)
EC50 [3]: > 120 µM (not active)

CC(Nc1ccccc1CO)C(=O)Nc1cccc(Cl)c1Cl (stereo not drawn)
EC50 [1]: 0.12 µM (active)
EC50 [2]: 7.64 µM (active)
EC50 [3]: 12.9 µM (active)

C[C@@H](C(=O)Nc1ccc2ccccc2c1)[C@@H]1C[C@@]1(C)[C@@H](NC(=O)OCc1ccccc1)c1ccccc1
AC50 [5]: 12.6 µM (inconclusive)

COC(=O)[C@@]1(Cc2ccccc2)[C@H]2c3cc(C(=O)N4CCCC4)n(Cc4ccsc4Br)c3C[C@H]2CN1C(=O)c1ccccc1
AC50 [5]: 12.6 µM (inconclusive)

COc1ccc(N(CC(=O)N2CCc3ccccc32)S(=O)(=O)c2c(C)noc2C)cc1
EC50 [6]: 56.1 µM (active)

COc1ccc(-c2coc3cc4oc(=O)c(CC(=O)O)c(C)c4cc23)cc1
EC50 [6]: > 260 µM (inactive)

CC(C)NC[C@H]1CCc2cc(CO)c([N+](=O)[O-])cc2N1
AC50 [7]: 10 µM (inconclusive)
AC50 [5]: 6.31 µM (inconclusive)

O=C(Nc1ccc2ccccc2c1)c1cn(-c2ccccc2)nc1-c1cccs1
CC50 [8]: 18.6 µM (active)
EC50 [9]: > 60 µM (not active)
EC50 [10]: 1.86 µM (active)

COc1ccc(C(C[N+](=O)[O-])C2(c3ccc(OC)c(OC)c3)C(=O)c3ccccc3C2=O)cc1 (stereo not drawn)
EC50 [6]: 13.3 µM (active)

Cc1oc(CC(C)C)cc1C(=O)Nc1cccc2ccccc12
AC50 [11]: 5 µM (active)

COCCNC(=O)/C(C#N)=C/c1ccc(OC(=O)c2cccs2)c(OC)c1
EC50 [6]: > 260 µM (inactive)

O=[N+]([O-])c1cc([N+](=O)[O-])c(Oc2c(F)cccc2F)cc1NN1CCCCC1
EC50 [6]: > 260 µM (inactive)

Cc1nn(C)c(Oc2ccccc2)c1CCNS(=O)(=O)c1ccc(Cl)cc1
EC50 [6]: > 260 µM (inactive)

O=C(NCCCN1CCOCC1)c1ccc(-n2nc(C(F)(F)F)cc2-c2cccs2)cc1
EC50 [1]: 34.9 µM (active)
EC50 [2]: 11.6 µM (active)
EC50 [3]: 16.4 µM (active)

COC(=O)c1ccc(CSc2nnnn2-c2ccc(C)cc2C)o1
EC50 [6]: > 260 µM (inactive)

COc1ccc(C(=O)N2CCC3(CC2)CN(c2ccc(-c4ccccc4)cc2)C3)cc1
AC50 [5]: 15.8 µM (inconclusive)

O=S(=O)(Nc1nc2ccccc2nc1N1CCN(c2ccccc2F)CC1)c1ccc(Cl)cc1
AC50 [11]: 4.82 µM (active)

C/C(NNc1ccccc1)=C1/C(=O)NC(=O)N(Cc2ccccc2)C1=O
AC50 [11]: 1.03 µM (active)

O=C(NNC(=O)C12CC3CC(CC(C3)C1)C2)c1ccccc1F
EC50 [1]: > 120 µM (not active)
EC50 [2]: 17.7 µM (active)
EC50 [3]: 10.2 µM (active)

COc1c(Br)cc([N+](=O)[O-])c(OC)c1C(=O)NC(=O)Nc1cc(Cl)cc(Cl)c1
EC50 [1]: 17.8 µM (active)
EC50 [2]: > 120 µM (not active)
EC50 [3]: 15.1 µM (active)

COC(=O)c1c(NC(=O)/C=C/c2ccc3c(c2)OCO3)sc(C)c1C
AC50 [11]: 4.17 µM (active)

O=C(CN1CCN(Cc2ccccc2Cl)C1=O)NCc1ccccn1
EC50 [1]: > 120 µM (not active)
EC50 [2]: > 120 µM (not active)
EC50 [3]: > 120 µM (not active)

COC(=O)[C@@]1(Cc2ccccc2)[C@H]2c3cc(C(=O)N4CCCC4)n(Cc4ccc(O)c(OC)c4)c3C[C@H]2CN1C(=O)c1ccccc1
AC50 [7]: 25.1 µM (inconclusive)
AC50 [5]: 20 µM (inconclusive)

CCc1nc2c(c(=O)c3ccccc3n2C)c(=O)n1C1CCCCCC1
CC50 [8]: 20.7 µM (active)
EC50 [12]: 6.21 µM (active)

CCOc1ccccc1-n1c(SCC(=O)Nc2ccc(CC)cc2)nc2nnc(C)c-2c1N
CC50 [8]: 45.1 µM (active)
EC50 [2]: > 60 µM (not active)
EC50 [3]: 9.77 µM (active)

Cc1ccc(C(c2c(C)nn(-c3ccccc3)c2N)c2c(C)nn(-c3ccccc3)c2N)cc1
EC50 [6]: > 260 µM (inactive)

CCC(C)(C)NC(=O)C(c1ccc(C)cc1)N(Cc1cccs1)C(=O)c1ccc2c(c1)OCCO2 (stereo not drawn)
EC50 [6]: > 260 µM (inactive)

COc1ccccc1CNc1ccnc(-c2cccc(NS(C)(=O)=O)c2)n1
AC50 [5]: 39.8 µM (inconclusive)

ClC(Cl)c1nnc(-c2ccccc2)c(-c2c[nH]c3ccccc23)n1
EC50 [6]: 81.5 µM (active)

CCCCc1ccc(NC(=O)Nc2cc(C)nn2C)cc1
AC50 [11]: 3.31 µM (active)

Cc1cccc(-c2nnc3n2N=C(c2ccccc2)CS3)c1
EC50 [1]: > 120 µM (not active)
EC50 [2]: > 120 µM (not active)
EC50 [3]: 12.4 µM (active)

COC(=O)[C@@]1(Cc2ccc(F)cc2)[C@H]2c3cc(C(=O)N(C)C)n(Cc4ccc(O)c(OC)c4)c3C[C@H]2CN1C(=O)c1ccccc1
AC50 [7]: 25.1 µM (inconclusive)
AC50 [5]: 20 µM (inconclusive)

Cc1nc(N2CCC(C)CC2)c2c(C)c(C(=O)Nc3cccc(C(F)(F)F)c3)sc2n1
EC50 [6]: > 260 µM (inactive)

CCC(=O)Nc1cccc(C(=O)/C=C/c2ccc(F)cc2)c1
EC50 [6]: 11.6 µM (active)

CC(C)CN(C(=O)c1cccs1)C1CCS(=O)(=O)C1 (stereo not drawn)
EC50 [6]: > 260 µM (inactive)

O=[N+]([O-])c1ccc(N/N=C/c2c[nH]c3ccccc23)c(S(=O)(=O)Nc2ccc(Cl)cc2)c1
AC50 [11]: 1.15 µM (active)

C/C(Cn1cnc([N+](=O)[O-])n1)=N\NC(=O)c1ccccc1F
EC50 [9]: > 60 µM (not active)
EC50 [10]: 1.25 µM (active)
EC50 [6]: > 260 µM (inactive)

Cn1ccc2cc3c(cc21)CCN3C(=O)Nc1cccnc1
AC50 [5]: 31.6 µM (inconclusive) and 20 µM (inconclusive)

CCOc1ccc(/C=N/NC(=O)COc2ccccc2-c2ccccc2)cc1
AC50 [11]: 4.37 µM (active)

C/C(N)=C(/C#N)C(=O)CSc1nnc(-c2ccc3c(c2)OCO3)o1
EC50 [6]: > 260 µM (inactive)

CN(C)/C=C(\C=N\OCc1ccc(Cl)cc1Cl)C(=O)Nc1ccc(Cl)c(Cl)c1
EC50 [13]: 0.618 µM (active)
EC50 [14]: 3.07 µM (active)
AC50 [11]: 1.5 µM (active)

Cc1ccccc1C(=O)N/N=C/c1ccncc1
AC50 [5]: 22.4 µM (inconclusive)

O=C(NCCc1ccccc1)N1c2ccccc2Sc2ccccc21
EC50 [6]: > 260 µM (inactive)
